Molecular target: T1, TRMT2A RRM (Homo sapiens, UniProt Q8IZ69)
T1 sequence (Q8IZ69 69-147): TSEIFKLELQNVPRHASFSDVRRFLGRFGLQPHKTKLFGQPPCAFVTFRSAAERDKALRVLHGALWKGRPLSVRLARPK
Test: SPR
Assay type: binding

Kd: 1300 ± 270 nM
Compound: NCCCNCCCCNCCCN [spermine]
